We go through one molecule from patent US20250320246A1, “3-AZASTEROID COMPOUNDS FOR THE TREATMENT OF DISEASES RELATED TO MITROCHONDRIAL FUNCTION” (NZP UK LIMITED, priority 2022, published 2025).

As usually defined, the EC50 is the concentration at which the effect is half-maximal.

Common to all, as to format: cell-based, human
Experiment [1] has as its system iNeurons from sPD patients. The experiment can be described thus: Mitochondrial reactive oxygen species (ROS) in iNeurons from sPD patients. The following applies: sPD patient iNeurons treated; untreated sPD patients 115. The protocol: (§1) The fibroblasts lines and iNPC lines have previously been characterised and published in Carling et al, 2020.
(§2) Briefly, iNPCs are plated in a 6-well plate and cultured for 2 days in DMEM/F-12 medium with Glutamax™ supplemented with 1% NEAA, 2% B27 (Gibco) and 2.5 μM of DAPT. On day 3, DAPT is removed and the medium is supplemented with 1 μM smoothened agonist (SAG) and FGF8 (75 ng/ml) for additional 10 days. Neurons are replated at this stage. Subsequently SAG and FGF8 are withdrawn and replaced with BDNF (30 ng/ml), GDNF (30 ng/ml), TGF-b3 ([…]) and dcAMP (2 mM, Sigma) for 15 days, as previously described Schwartzentruber et al, 2020 and Carling et al, 2020. Dopaminergic neurons were treated with compounds at concentrations of 0.1 nM, 1 nM, 3 nM, 10 nM, 30 nM and 100 nM dosing every 3 days for the last 12 days of differentiation.
(§3) iNeurons were treated every 3 days for the last 12 days of the differentiation protocol. Cells are plated in 96 well plates; for live imaging cells are incubated for one hour at 37° C. with 80 nM tetramethlyrhodamine (TMRM), 1 μM LysoTracker® Green (Invitrogen) and Hoechst Stain solution (Sigma) at 1 μM before imaging using Opera Phenix™. Cellular ATP measurements are undertaken using ATPlite kit (Perkin Elmer) as per manufacturer's instructions. Mitochondrial reactive oxygen species generation was assessed using mitochondrial NpFR2 (probe; a kind gift from Dr Liz New, University of Sydney, Australia) at 20 μM and Hoechst stain solution at 1 μM for 30 mins at 37° C., then the dyes are removed and cells images using Opera Phenix™. Images generated from the live imaging experiments were analysed using Harmony® (Perkin Elmer software). We developed protocols in order to segment nucleus, cell boundary and processes, mitochondria, lysosomes, autophagosomes. We only analysed the z projection images collected from the z stacks.

Experiment [2] relates to iNeurons from sPD patients. The experiment can be described thus: Cellular ATP in iNeurons (dopaminergic neurons derived from sPD patients). Here is the method:
as §1, §2, §3

Experiment [3] concerns iNeurons from sPD patients. As to the kind of experiment: Activated caspase 3 levels (apoptosis) in iNeurons from sPD patients. The protocol:
as §1, §2
Cells are plated into 96 well plates and fixed using 4% paraformaldehyde for 30 minutes. After PBS washes cells are permeabilised using 0.1% Triton™ X-100 for 10 minutes and blocked using 5% goat serum for 1 hour. Cells are incubated with primary antibodies βIII tubulin (Millipore); activated caspase 3 (Cell Signaling); at 4° C. for 16 hours. Cells are washed using PBS-Tween® and incubated with Alexa Fluor™-conjugated secondary antibodies 488 and 568 (Invitrogen) and Hoescht (Sigma) 1 μM prior to imaging. Imaging was performed using the Opera Phenix™ high content imaging system (Perkin Elmer).

Experiment [4] has as its system sporadic Parkinson's disease patient fibroblast lines. The experiment can be described thus: Mitochondrial respiration (oxygen consumption rate), Seahorse Mito Stress test. The following applies: 50 nM for 24 hours, sPD fibroblasts. The protocol:
Oxygen consumption rate (OCR) was measured by the Agilent Seahorse Mito Stress test using a 24-well Agilent Seahorse XF analyzer machine (Agilent). Human fibroblasts where plated at a density of 60,000 cells per well. Cells were treated with compound 50 nM for 24 hours prior to measurement. 3 measurements of OCR were taken in each state: basal state, after addition of oligomycin (0.5 μM), FCCP (0.5 μM) and rotenone (1 μM). A cell count was then done on a fixed assay plate using a Hoechst dye (1 μM). Data presented is normalized to cell number.

The subject of experiment [5] is sporadic PD patient fibroblasts. The experiment can be described thus: Mitochondrial membrane potential (MMP, TMRM) in sporadic PD patient fibroblasts. The following applies: Homo sapiens, Fibroblast, 24 h, 3 sporadic PD patient fibroblasts. Here is the method:
Primary fibroblast cells were cultured continuously in Glucose based medium (high glucose (4500 mg/L) Dulbecco's Modified Eagle's medium (DMEM; Sigma-Aldrich) supplemented with 10% fetal bovine serum (Sigma-Aldrich), 100 IU/mL penicillin, 100 μg/mL streptomycin (Lonza), 1 mM sodium pyruvate (Sigma-Aldrich) and 50 μg/mL uridine (Sigma-Aldrich)). Unless otherwise stated, 24 hours prior to analysis, the Glucose based medium was exchanged for Galactose based medium (glucose-free DMEM (Gibco) with the same supplementation and in addition, 5 mM galactose (Sigma-Aldrich)). All cells were assessed between passage 6-10.
Fibroblasts were cultured and plated into a greiner black 384 μClear® plate at a concentration of 1000 cells per well in 50 μl of media volume. The plates are left overnight in an incubator to allow the fibroblasts to adhere to the plate surface. The following morning the Glucose based medium is replaced with 25 μl of Galactose based medium. The plates were then dosed with the compounds using an ECHO® 550 liquid handling system. The wells were dosed to provide an 8-point concentration range of 0.06 nM-300 nM of compound. After dosing the wells are topped up with a further 25 μl of Galactose based medium and then left in an incubator for 24 hours. After 24 hours, the medium is removed from the wells and replaced with 25 μl phenol free Minimal essential medium supplemented with 10% FBS, 1% Penicillin-streptomycin, 1% sodium pyruvate, 0.1% uridine, 1% non-essential amino acids and 1% MEM vitamins with 80 nM TMRM (Sigma) and 10 μM Hoechst Stain (Sigma). The plate is returned to the incubator for another hour after which the stain medium is removed and replaced with 25 μl Phenol free MEM. The plate is then imaged using an IN Cell high content microscope (GE Healthcare) with fields of view per well in 2 channels, Cy3 excitation 542 nm, emission 604-64 nm; and the DAPI excitation 350 nm, emission 450-55 nm at 37° C. with CO2. After imaging the plate is disposed of and the images are Data mined using the INCell developer Toolkit (GE Healthcare).
After the assays had been repeated in triplicate per line and compound the data was then inputted into Graph pad Prism 7 software suite where a dose response curve is generated using the default “[Agonist] vs response(three parameters)” equation. […]

The subject of experiment [6] is iNeurons from sPD patients. The experiment can be described thus: Mitochondrial membrane potential (MMP) in iNeurons from sPD patients. Here is the method: as §1, §2, §3

Take `C[C@H](CCCC(=O)O)[C@H]1CC[C@H]2[C@@H]3[C@@H](O)C[C@@H]4CNCC[C@]4(C)[C@H]3CC[C@]12C.Cl` [Compound 28b, 3-Aza-7β-hydroxy-25-homo-5β-cholan-25-oic acid hydrochloride]: in experiment [1], the “ROS normalisation (% of controls)” value is 109 % of controls. Besides, the EC50 was 5 nM in experiment [2] (Homo sapiens, Neuron, sPD patient iNeurons, dosing every 3 days for last 12 days of differentiation); 4.03 nM in experiment [5] (8-point range 0.06 nM-300 nM); 8.2 nM in experiment [6] (Homo sapiens, sPD patient iNeurons, dosing every 3 days for last 12 days of differentiation). Also, the “effect on mitochondrial parameters in sPD derived dopaminergic neurons” value in experiment [2] (both mitochondrial parameters (Table 3)) was “provides a protective effect on both mitochondrial parameters”. The “ATP normalisation (% of controls)” value in experiment [2] (sPD patient iNeurons treated, untreated sPD patients 50) is reported as 94.3 % of controls. Further, in experiment [3] (sPD derived dopaminergic neurons), the “apoptosis levels (as measured by activated caspase 3 levels), in words” value is reported as “reducing apoptosis levels”. Also, the “Activated caspase 3 levels” value in experiment [3] (sPD patient iNeurons treated, untreated sPD patients 162) was 138 % of level in iNeurons from Controls. Moreover, the basal mitochondrial respiration result in experiment [4] (p<0.05, vehicle sPD reduced 30% vs controls) is reported as “increases basal respiration in the sPD fibroblasts to control levels”. For the same molecule, the ATP linked respiration result in experiment [4] (to a lesser extent, vehicle sPD reduced 23% vs controls) is listed as “Increases are also seen”. Also, the spare respiratory capacity result in experiment [4] (to a lesser extent, vehicle sPD reduced 42% vs controls) is “Increases are also seen”. Besides, in experiment [5] (max response with highest dose of compound (300 nM), read-out: MMP % of vehicle, top %), the Emax stood at 101%. In experiment [5] (max response with lowest dose of compound (0.06 nM), read-out: MMP % of vehicle, bottom %), the activity at 60 pM worked out at 92.8%. Besides, in experiment [6] (sPD patient iNeurons treated, untreated sPD patients 52), the “MMP normalisation (% of controls)” value is given as 76 % of controls.
